Experimental data as given in article doi:10.1101/2021.02.18.431786v1 (biorxiv, 2021).

Biological target: ABCG2 (Homo sapiens, UniProt Q9UNQ0)
Assay: biochemical

Sequence of ABCG2 (Q9UNQ0 whole entry): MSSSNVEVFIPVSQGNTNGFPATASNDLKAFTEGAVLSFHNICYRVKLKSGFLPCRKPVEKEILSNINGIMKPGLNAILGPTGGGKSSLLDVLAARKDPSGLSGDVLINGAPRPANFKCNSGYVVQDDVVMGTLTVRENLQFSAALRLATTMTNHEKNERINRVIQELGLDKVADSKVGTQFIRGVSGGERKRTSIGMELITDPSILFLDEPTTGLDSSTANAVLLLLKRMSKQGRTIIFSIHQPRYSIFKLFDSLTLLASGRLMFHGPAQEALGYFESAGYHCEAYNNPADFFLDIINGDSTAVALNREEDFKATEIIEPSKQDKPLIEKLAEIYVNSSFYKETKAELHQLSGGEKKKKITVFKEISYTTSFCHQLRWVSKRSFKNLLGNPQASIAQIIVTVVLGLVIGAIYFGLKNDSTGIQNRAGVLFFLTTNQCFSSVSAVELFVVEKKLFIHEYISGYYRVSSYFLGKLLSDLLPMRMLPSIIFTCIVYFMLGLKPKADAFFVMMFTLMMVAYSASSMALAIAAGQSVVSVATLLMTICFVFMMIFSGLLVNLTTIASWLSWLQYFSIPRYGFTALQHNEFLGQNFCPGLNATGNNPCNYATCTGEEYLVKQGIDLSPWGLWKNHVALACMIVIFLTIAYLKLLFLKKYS

SMILES | EC50 [µM]
O=C1c2c(O)ccc(O)c2C(=O)c2c(NCCNCCO)ccc(NCCNCCO)c21 [mitoxantrone] | 18.3 ± 2.2
COc1cc2c(cc1OC)CN(CCc1ccc(NC(=O)c3cc(OC)c(OC)cc3NC(=O)c3cnc4ccccc4c3)cc1)CC2 [tariquidar] | 0.08 ± 0.01
CC[C@@]1(O)C(=O)OCc2c1cc1n(c2=O)Cc2cc3c(CN(C)C)c(O)ccc3nc2-1 [topotecan] | 11.7 ± 0.3
